Measured values taken from ChEMBL document CHEMBL4371004, “A-C Estrogens as Potent and Selective Estrogen Receptor-Beta Agonists (SERBAs) to Enhance Memory Consolidation under Low-Estrogen Conditions” (J Med Chem, 2018).
pEC50, pIC50: −log10 of the molar value. The source made the active and inactive calls. No cut-off for these calls is given here.

Columns and labels:
[1] = biological target: T1, Thyroid hormone receptor beta (Homo sapiens) (UniProt P10828); assay: Agonist activity at GAL4 DNA binding domain fused thyroid hormone receptor beta (unknown origin) at 0.25 to 25 uM by FRET-based assay
T1 sequence (whole entry): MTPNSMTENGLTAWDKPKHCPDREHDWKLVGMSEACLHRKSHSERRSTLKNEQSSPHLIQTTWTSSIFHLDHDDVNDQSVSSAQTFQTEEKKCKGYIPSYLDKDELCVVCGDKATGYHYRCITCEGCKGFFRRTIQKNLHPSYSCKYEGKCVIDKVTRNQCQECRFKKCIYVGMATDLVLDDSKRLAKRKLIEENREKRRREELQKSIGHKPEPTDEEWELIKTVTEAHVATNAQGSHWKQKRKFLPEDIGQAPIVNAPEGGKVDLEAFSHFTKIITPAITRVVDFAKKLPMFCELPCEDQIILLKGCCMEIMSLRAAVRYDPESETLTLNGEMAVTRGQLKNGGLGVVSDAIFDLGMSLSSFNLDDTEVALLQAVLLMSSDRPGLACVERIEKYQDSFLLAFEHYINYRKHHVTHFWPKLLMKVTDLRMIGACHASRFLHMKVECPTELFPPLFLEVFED

Cytochrome P450 2D6 = Cytochrome P450 2D6 (Homo sapiens, UniProt P10635); assay: Inhibition of human recombinant CYP2D6 up to 100 uM preincubated for 10 mins followed by NADPH addition and measured after 10 to 30 mins by P450-Glo luminescence assay; assay type: ADME; conditions: recombinant enzyme
Estrogen receptor [2] = biological target: T2, Estrogen receptor (Homo sapiens, UniProt P03372); assay: cell-based
T2 sequence (P03372 whole entry): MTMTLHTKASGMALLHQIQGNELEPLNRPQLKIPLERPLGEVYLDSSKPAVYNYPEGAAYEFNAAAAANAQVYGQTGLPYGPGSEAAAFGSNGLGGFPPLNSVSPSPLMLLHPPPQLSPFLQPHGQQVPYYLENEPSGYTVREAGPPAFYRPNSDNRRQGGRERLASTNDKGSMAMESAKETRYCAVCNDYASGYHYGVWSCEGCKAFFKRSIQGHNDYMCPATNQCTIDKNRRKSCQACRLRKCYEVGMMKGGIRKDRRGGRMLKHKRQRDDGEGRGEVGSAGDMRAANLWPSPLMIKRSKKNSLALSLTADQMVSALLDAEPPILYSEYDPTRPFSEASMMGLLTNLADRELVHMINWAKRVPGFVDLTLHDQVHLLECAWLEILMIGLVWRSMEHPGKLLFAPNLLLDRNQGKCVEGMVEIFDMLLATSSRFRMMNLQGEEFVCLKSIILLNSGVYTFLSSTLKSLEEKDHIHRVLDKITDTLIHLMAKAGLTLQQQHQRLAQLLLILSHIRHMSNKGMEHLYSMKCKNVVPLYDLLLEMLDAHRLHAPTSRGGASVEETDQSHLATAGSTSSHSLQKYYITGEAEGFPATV
Description: Agonist activity at GAL4 DNA binding domain fused full-length chimeric estrogen receptor alpha (unknown origin) by FRET-based assay

Mus musculus [3] = assay: Memory enhancement effect in C57BL/6 mouse assessed as time spent with moved object at 5 mg/kg, po administered via gavage by object recognition test; assay type: functional
Mus musculus [4] = assay: Memory enhancement effect in C57BL/6 mouse assessed as time spent with novel object at 0.5 mg/kg, ip by novel object recognition test; assay type: functional
[5] = biological target: T3, Androgen receptor (Homo sapiens) (UniProt P10275); assay: Agonist activity at GAL4 DNA binding domain fused androgen receptor ligand binding domain (unknown origin) at 0.25 to 25 uM by FRET-based assay
T3 sequence (whole entry): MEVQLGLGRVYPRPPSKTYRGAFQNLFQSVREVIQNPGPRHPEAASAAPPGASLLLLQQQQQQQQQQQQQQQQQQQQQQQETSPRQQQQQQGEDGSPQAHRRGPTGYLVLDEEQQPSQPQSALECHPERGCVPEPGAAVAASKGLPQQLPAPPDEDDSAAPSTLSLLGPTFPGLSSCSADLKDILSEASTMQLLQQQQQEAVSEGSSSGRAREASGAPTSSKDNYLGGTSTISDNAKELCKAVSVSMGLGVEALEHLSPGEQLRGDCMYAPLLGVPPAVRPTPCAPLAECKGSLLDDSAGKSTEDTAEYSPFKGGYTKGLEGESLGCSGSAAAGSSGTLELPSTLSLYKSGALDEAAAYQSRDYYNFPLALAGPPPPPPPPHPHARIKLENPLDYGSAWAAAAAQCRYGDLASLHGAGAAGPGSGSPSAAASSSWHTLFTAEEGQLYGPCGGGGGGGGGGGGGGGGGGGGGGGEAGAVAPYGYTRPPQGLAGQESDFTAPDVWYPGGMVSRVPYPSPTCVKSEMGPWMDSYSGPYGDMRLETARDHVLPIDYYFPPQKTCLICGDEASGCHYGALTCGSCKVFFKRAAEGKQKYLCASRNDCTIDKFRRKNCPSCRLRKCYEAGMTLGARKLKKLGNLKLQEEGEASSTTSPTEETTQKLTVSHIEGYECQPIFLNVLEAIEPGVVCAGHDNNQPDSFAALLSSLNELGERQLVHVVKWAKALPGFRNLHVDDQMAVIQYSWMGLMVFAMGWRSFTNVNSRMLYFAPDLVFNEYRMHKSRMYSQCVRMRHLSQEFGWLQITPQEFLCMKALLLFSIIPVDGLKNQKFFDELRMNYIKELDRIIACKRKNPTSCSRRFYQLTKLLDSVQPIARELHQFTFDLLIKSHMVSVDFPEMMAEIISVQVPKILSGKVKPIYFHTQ

Estrogen receptor [6] = biological target: T2, Estrogen receptor

Sequence of Cytochrome P450 2D6 (P10635 whole entry): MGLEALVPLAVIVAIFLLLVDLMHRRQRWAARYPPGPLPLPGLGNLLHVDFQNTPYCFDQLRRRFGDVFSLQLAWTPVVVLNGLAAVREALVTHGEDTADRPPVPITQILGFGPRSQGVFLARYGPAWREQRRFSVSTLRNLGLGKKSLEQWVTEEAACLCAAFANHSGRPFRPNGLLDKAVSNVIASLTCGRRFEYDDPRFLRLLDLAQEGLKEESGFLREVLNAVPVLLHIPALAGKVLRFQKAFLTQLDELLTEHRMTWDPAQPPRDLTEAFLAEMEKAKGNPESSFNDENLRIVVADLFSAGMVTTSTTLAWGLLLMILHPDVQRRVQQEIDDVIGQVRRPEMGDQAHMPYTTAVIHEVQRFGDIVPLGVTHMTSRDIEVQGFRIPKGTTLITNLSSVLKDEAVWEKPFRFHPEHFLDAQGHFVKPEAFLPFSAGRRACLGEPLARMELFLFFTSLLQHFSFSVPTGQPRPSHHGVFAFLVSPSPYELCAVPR

## OC[C@H]1CC[C@H](c2ccc(O)cc2)CC1
[1]
  Activity: inactive
Cytochrome P450 2D6
  inhibition (INH): Not Active
Estrogen receptor [2]
  pEC50: 6.03
Mus musculus [3]
  Time: 5.06 s
Mus musculus [4]
  Time: 4.17 s
[5]
  Activity: inactive
Estrogen receptor [6]
  pIC50: 5.53
